The kinase profiling compilation of Christmann-Franck et al. (2016)

Columns and labels:
Assay in all cases: KINOMEscan competition binding
Details in all cases: compound 10.0 µM
AAK1 (human) = AAK1 (human) (UniProt Q2M2I8)
AKT1 (human) = AKT1 (human) (UniProt P31749)
ANKK1 (human) = ANKK1 (human) (UniProt Q8NFD2)
CHEK1 (human) = CHEK1 (human) (UniProt O14757)
CSF1R (human) = CSF1R (human) (UniProt P07333)
EIF2AK2 (human) = EIF2AK2 (human) (UniProt P19525)
EPHA7 (human) = EPHA7 (human) (UniProt Q15375)
EPHA8 (human) = EPHA8 (human) (UniProt P29322)
EPHA8 (human), sequence (P29322 whole entry, looked up): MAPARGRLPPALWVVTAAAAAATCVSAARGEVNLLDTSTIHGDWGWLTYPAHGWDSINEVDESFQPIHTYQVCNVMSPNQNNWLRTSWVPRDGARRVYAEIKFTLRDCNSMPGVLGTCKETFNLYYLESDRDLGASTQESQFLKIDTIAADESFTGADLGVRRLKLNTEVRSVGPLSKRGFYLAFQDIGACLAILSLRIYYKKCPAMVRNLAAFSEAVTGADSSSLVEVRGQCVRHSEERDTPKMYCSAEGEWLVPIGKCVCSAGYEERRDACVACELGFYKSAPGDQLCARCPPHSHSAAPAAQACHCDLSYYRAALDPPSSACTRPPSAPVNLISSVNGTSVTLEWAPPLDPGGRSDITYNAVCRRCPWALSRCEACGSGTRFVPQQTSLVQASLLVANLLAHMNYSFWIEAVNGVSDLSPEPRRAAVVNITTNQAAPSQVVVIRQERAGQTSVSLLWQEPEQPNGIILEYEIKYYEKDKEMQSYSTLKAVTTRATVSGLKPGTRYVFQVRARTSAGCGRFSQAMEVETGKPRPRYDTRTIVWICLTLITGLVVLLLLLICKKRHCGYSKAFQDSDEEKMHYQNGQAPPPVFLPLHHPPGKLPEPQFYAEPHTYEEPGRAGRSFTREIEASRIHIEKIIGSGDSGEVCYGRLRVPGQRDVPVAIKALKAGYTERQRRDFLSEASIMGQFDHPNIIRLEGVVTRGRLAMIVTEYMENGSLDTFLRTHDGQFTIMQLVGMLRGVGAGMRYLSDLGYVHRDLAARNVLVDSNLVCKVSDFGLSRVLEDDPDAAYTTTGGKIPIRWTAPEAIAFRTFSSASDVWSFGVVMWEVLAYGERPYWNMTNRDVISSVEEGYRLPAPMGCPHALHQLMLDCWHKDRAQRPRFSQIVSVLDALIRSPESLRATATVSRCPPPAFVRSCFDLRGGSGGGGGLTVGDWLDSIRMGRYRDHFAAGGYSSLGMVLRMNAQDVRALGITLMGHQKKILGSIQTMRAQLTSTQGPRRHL

FLT1 (human) = FLT1 (human) (UniProt P17948)
FYN (human) = FYN (human) (UniProt P06241)
HIPK4 (human) = HIPK4 (human) (UniProt Q8NE63)
HIPK4 (human), sequence (Q8NE63 whole entry, looked up): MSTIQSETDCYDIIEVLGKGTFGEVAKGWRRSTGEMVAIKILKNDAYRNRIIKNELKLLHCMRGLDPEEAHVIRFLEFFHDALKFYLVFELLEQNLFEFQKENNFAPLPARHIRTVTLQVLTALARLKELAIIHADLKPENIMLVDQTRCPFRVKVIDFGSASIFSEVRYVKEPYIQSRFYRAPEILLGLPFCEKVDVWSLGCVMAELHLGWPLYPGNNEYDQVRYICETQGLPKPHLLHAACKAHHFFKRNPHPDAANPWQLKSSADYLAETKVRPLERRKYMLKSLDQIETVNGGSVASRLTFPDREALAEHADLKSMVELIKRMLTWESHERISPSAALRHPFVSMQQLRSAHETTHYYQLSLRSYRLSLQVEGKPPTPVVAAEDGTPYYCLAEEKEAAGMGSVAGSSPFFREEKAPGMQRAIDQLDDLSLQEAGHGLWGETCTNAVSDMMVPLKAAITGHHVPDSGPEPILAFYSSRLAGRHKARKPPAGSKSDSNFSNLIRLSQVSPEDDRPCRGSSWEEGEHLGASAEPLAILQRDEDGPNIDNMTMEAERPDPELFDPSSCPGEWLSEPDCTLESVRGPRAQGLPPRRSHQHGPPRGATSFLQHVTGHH

HUNK (human) = HUNK (human) (UniProt P57058)
MAP3K15 (human) = MAP3K15 (human) (UniProt Q6ZN16)
MAP3K15 (human), sequence (Q6ZN16 whole entry, looked up): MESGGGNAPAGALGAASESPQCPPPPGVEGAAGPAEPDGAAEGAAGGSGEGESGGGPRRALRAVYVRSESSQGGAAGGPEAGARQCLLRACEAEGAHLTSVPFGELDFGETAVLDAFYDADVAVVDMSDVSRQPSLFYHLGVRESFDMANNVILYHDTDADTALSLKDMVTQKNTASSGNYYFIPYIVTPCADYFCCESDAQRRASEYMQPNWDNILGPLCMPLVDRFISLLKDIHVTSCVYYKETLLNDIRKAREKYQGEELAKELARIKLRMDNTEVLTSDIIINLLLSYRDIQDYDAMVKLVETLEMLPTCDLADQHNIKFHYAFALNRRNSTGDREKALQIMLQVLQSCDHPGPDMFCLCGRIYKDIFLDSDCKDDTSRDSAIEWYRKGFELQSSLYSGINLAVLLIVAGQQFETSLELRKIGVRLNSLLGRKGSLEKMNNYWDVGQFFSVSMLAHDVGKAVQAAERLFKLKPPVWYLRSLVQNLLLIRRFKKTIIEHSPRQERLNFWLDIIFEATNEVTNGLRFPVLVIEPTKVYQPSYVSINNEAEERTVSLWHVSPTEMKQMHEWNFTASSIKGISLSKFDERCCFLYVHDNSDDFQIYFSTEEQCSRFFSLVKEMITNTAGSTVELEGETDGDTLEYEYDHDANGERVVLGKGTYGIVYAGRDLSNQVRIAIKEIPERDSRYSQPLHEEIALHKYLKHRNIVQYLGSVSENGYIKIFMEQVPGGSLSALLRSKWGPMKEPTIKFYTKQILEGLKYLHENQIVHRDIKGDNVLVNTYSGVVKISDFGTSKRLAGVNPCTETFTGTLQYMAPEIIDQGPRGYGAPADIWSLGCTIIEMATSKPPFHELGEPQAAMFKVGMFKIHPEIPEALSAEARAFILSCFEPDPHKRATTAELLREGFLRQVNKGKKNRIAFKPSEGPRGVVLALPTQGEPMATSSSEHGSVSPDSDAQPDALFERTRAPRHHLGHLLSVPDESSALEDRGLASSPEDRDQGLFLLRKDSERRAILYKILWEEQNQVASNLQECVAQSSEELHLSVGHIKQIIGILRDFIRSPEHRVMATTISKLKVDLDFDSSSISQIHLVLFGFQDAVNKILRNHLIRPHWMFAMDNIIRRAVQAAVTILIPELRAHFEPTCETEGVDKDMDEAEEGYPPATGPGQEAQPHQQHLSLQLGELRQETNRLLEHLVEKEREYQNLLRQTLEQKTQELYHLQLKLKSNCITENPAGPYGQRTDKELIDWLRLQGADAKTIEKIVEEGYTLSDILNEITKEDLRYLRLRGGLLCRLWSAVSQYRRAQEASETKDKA

MAPK15 (human) = MAPK15 (human) (UniProt Q8TD08)
MARK4 (human) = MARK4 (human) (UniProt Q96L34)
MATK (human) = MATK (human) (UniProt P42679)
MINK1 (human) = MINK1 (human) (UniProt Q8N4C8)
MKNK1 (human) = MKNK1 (human) (UniProt Q9BUB5)
NEK1 (human) = NEK1 (human) (UniProt Q96PY6)
NEK5 (human) = NEK5 (human) (UniProt Q6P3R8)
NTRK3 (human) = NTRK3 (human) (UniProt Q16288)
PIM1 (human) = PIM1 (human) (UniProt P11309)
PKMYT1 (human) = PKMYT1 (human) (UniProt Q99640)
PLK3 (human) = PLK3 (human) (UniProt Q9H4B4)
PTK2 (human) = PTK2 (human) (UniProt Q05397)
PTK2B (human) = PTK2B (human) (UniProt Q14289)
[1] = tested on: RET (human), P07949 [V804L]
RIPK2 (human) = RIPK2 (human) (UniProt O43353)
ROCK2 (human) = ROCK2 (human) (UniProt O75116)
RPS6KA1 KD1 (human) = RPS6KA1 KD1 (human) (UniProt Q15418)
RPS6KA3 KD1 (human) = RPS6KA3 KD1 (human) (UniProt P51812)
RPS6KA5 KD1 (human) = RPS6KA5 KD1 (human) (UniProt O75582)
RPS6KA5 KD2 (human) = RPS6KA5 KD2 (human) (UniProt O75582)
SIK1 (human) = SIK1 (human) (UniProt P57059)
SRPK1 (human) = SRPK1 (human) (UniProt Q96SB4)
STK24 (human) = STK24 (human) (UniProt Q9Y6E0)
STK24 (human), sequence (Q9Y6E0 whole entry, looked up): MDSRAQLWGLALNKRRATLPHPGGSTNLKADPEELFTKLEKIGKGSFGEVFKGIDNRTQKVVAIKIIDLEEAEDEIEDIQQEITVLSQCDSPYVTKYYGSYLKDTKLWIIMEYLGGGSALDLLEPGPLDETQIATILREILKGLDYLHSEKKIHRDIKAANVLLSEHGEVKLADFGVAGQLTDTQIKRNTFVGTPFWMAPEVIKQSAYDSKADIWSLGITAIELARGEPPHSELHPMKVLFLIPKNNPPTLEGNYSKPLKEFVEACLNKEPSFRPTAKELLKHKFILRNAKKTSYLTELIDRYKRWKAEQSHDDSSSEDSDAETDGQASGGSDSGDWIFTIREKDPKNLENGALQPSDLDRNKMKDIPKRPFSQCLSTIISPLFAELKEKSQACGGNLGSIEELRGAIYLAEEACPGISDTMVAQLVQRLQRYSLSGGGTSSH

STK36 (human) = STK36 (human) (UniProt Q9NRP7)
STK4 (human) = STK4 (human) (UniProt Q13043)
STK4 (human), sequence (Q13043 whole entry, looked up): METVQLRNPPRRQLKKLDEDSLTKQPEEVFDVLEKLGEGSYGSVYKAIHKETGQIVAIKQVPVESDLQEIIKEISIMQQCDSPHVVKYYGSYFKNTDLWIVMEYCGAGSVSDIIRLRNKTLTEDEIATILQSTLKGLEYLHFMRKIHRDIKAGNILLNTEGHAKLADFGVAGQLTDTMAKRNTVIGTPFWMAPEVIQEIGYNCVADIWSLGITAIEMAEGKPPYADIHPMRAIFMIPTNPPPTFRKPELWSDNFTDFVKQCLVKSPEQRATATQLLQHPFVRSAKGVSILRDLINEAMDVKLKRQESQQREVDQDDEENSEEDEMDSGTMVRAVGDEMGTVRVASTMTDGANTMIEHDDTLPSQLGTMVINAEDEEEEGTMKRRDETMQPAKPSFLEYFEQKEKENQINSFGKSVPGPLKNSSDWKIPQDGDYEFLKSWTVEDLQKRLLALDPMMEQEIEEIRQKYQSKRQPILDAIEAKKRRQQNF

TAOK3 (human) = TAOK3 (human) (UniProt Q9H2K8)
WEE1 (human) = WEE1 (human) (UniProt P30291)

CSF1R (human), sequence (P07333 whole entry, looked up): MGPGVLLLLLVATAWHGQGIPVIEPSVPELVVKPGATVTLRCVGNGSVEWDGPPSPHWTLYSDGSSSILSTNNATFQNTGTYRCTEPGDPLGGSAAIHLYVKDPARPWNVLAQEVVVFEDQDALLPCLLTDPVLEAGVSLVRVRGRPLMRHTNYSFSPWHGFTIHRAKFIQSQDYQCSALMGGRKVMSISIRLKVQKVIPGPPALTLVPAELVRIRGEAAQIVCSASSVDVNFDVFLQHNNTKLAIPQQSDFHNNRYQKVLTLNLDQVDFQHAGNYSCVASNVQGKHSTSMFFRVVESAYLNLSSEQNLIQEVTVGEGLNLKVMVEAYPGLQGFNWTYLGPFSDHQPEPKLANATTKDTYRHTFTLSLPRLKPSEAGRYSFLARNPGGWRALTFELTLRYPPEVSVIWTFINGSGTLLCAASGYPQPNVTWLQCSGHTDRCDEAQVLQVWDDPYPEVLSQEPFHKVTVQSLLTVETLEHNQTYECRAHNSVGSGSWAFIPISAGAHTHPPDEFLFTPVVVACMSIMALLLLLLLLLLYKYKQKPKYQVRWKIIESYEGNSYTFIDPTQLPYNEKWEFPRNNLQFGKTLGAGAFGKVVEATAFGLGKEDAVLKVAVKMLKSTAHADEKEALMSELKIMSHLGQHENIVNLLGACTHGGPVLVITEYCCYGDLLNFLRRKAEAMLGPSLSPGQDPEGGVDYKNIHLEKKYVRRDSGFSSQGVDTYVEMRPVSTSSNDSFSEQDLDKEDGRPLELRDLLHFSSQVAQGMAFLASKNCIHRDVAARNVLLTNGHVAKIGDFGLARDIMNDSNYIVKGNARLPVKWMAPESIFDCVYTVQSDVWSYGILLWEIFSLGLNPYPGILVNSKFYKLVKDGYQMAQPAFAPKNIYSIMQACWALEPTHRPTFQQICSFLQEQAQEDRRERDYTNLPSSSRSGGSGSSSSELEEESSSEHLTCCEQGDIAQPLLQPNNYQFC

Compound | kinase still bound, per cent of control (AAK1 (human)) [%] | kinase still bound, per cent of control (AKT1 (human)) [%] | kinase still bound, per cent of control (ANKK1 (human)) [%] | kinase still bound, per cent of control (CHEK1 (human)) [%] | kinase still bound, per cent of control (EIF2AK2 (human)) [%] | kinase still bound, per cent of control (EPHA7 (human)) [%] | kinase still bound, per cent of control (EPHA8 (human)) [%] | kinase still bound, per cent of control (FLT1 (human)) [%] | kinase still bound, per cent of control (FYN (human)) [%] | kinase still bound, per cent of control (HIPK4 (human)) [%] | kinase still bound, per cent of control (HUNK (human)) [%] | kinase still bound, per cent of control (MAP3K15 (human)) [%] | kinase still bound, per cent of control (MAPK15 (human)) [%] | kinase still bound, per cent of control (MARK4 (human)) [%] | kinase still bound, per cent of control (MATK (human)) [%] | kinase still bound, per cent of control (MINK1 (human)) [%] | kinase still bound, per cent of control (MKNK1 (human)) [%] | kinase still bound, per cent of control (NEK1 (human)) [%] | kinase still bound, per cent of control (NEK5 (human)) [%] | kinase still bound, per cent of control (NTRK3 (human)) [%] | further results
N#Cc1cc(-c2ccnc(Nc3ccc(-n4cnc(-c5cccnc5)n4)cc3)n2)cc(N2CCOCC2)c1 | 5.4 | 100 | 55 | 100 | 48 | 85 | 93 | 48 | 83 | 13 | 42 | 66 | 2 | 78 | 62 | 31 | 100 | 57 | 1.4 | 100 | kinase still bound, per cent of control (CSF1R (human)): 14%; kinase still bound, per cent of control (PIM1 (human)): 78%; kinase still bound, per cent of control (PKMYT1 (human)): 65%; kinase still bound, per cent of control (PLK3 (human)): 93%; kinase still bound, per cent of control (PTK2 (human)): 77%; kinase still bound, per cent of control (PTK2B (human)): 20%; kinase still bound, per cent of control [1]: 100%; kinase still bound, per cent of control (RIPK2 (human)): 53%; kinase still bound, per cent of control (ROCK2 (human)): 25%; kinase still bound, per cent of control (RPS6KA1 KD1 (human)): 31%; kinase still bound, per cent of control (RPS6KA3 KD1 (human)): 69%; kinase still bound, per cent of control (RPS6KA5 KD1 (human)): 100%; kinase still bound, per cent of control (RPS6KA5 KD2 (human)): 100%; kinase still bound, per cent of control (SIK1 (human)): 73%; kinase still bound, per cent of control (SRPK1 (human)): 30%; kinase still bound, per cent of control (STK24 (human)): 70%; kinase still bound, per cent of control (STK36 (human)): 15%; kinase still bound, per cent of control (STK4 (human)): 89%; kinase still bound, per cent of control (TAOK3 (human)): 28%; kinase still bound, per cent of control (WEE1 (human)): 82%
CNC(=O)Nc1ccc(-c2nc(N3CC4CCC(C3)O4)c3cnn(C4CCC5(CC4)OCCO5)c3n2)cc1 | 100 | 81 | 77 | 100 | 100 | 87 | 81 | 92 | 70 | 100 | 100 | 100 | 25 | 94 | 100 | 100 | 100 | 100 | 81 | 93 | kinase still bound, per cent of control (CSF1R (human)): 100%; kinase still bound, per cent of control (PIM1 (human)): 100%; kinase still bound, per cent of control (PKMYT1 (human)): 75%; kinase still bound, per cent of control (PLK3 (human)): 100%; kinase still bound, per cent of control (PTK2 (human)): 78%; kinase still bound, per cent of control (PTK2B (human)): 100%; kinase still bound, per cent of control [1]: 85%; kinase still bound, per cent of control (RIPK2 (human)): 71%; kinase still bound, per cent of control (ROCK2 (human)): 100%; kinase still bound, per cent of control (RPS6KA1 KD1 (human)): 100%; kinase still bound, per cent of control (RPS6KA3 KD1 (human)): 100%; kinase still bound, per cent of control (RPS6KA5 KD1 (human)): 86%; kinase still bound, per cent of control (RPS6KA5 KD2 (human)): 90%; kinase still bound, per cent of control (SIK1 (human)): 86%; kinase still bound, per cent of control (SRPK1 (human)): 100%; kinase still bound, per cent of control (STK24 (human)): 96%; kinase still bound, per cent of control (STK36 (human)): 96%; kinase still bound, per cent of control (STK4 (human)): 100%; kinase still bound, per cent of control (TAOK3 (human)): 90%; kinase still bound, per cent of control (WEE1 (human)): 79%
CCCS(=O)(=O)Nc1ccc(F)c(C(=O)c2c[nH]c3ncc(Cl)cc23)c1F | 84 | 100 | 98 | 82 | 74 | 99 | 95 | 28 | 11 | 34 | 24 | 74 | 97 | 72 | 90 | 28 | 100 | 72 | 100 | 77 | kinase still bound, per cent of control (PIM1 (human)): 77%; kinase still bound, per cent of control (PKMYT1 (human)): 100%; kinase still bound, per cent of control (PLK3 (human)): 96%; kinase still bound, per cent of control (PTK2 (human)): 51%; kinase still bound, per cent of control (PTK2B (human)): 83%; kinase still bound, per cent of control [1]: 96%; kinase still bound, per cent of control (RIPK2 (human)): 8.3%; kinase still bound, per cent of control (ROCK2 (human)): 81%; kinase still bound, per cent of control (RPS6KA1 KD1 (human)): 71%; kinase still bound, per cent of control (RPS6KA3 KD1 (human)): 56%; kinase still bound, per cent of control (RPS6KA5 KD1 (human)): 100%; kinase still bound, per cent of control (RPS6KA5 KD2 (human)): 86%; kinase still bound, per cent of control (SIK1 (human)): 2.6%; kinase still bound, per cent of control (SRPK1 (human)): 100%; kinase still bound, per cent of control (STK24 (human)): 77%; kinase still bound, per cent of control (STK36 (human)): 18%; kinase still bound, per cent of control (STK4 (human)): 38%; kinase still bound, per cent of control (TAOK3 (human)): 61%; kinase still bound, per cent of control (WEE1 (human)): 100%
